Test results: PubChem BioAssay AID1918940 (Molecular Pharmacology Branch, DTP, NCI, 2023)

System: NCI-H211 complex spheroid viability
Test: Anticancer human tumor NCI-H211 cell line growth inhibition [LSD1];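 note: luminescent viability read after seven days of drug exposure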;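 for viability, T/C: 100% = DMSO vehicle control viability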
Details: for IC50: curve of first compound; for viability, T/C: stronger effect = lower value
Outline: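 Multicellular complex spheroids of tumor cells with human endothelial cells (HUVEC) and mesenchymal stem cells; the LSD1 inhibitor iadademstat was combined with standard-of-care or investigational agents. Top concentration at or near clinical Cmax, half-log dilutions; final DMSO ≤0.25%.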

[1] = second compound 0.1 µM, first compound 0.0316 µM
[2] = second compound 0.1 µM, first compound 0.1 µM
[3] = second compound 0.316 µM, first compound 0.0316 µM
[4] = second compound 0.316 µM, first compound 0.1 µM
[5] = second compound 1 µM, first compound 0.0316 µM
[6] = second compound 1 µM, first compound 0.1 µM
[7] = second compound 3.16 µM, first compound 0.0316 µM
[8] = second compound 3.16 µM, first compound 0.1 µM
[9] = second compound 10 µM, first compound 0.0316 µM
[10] = second compound 10 µM, first compound 0.1 µM
[11] = second compound 0.1 µM, first compound 0.000949 µM
[12] = second compound 0.1 µM, first compound 0.003 µM
[13] = second compound 0.1 µM, first compound 0.00949 µM
[14] = second compound 0.1 µM, first compound 0.03 µM
[15] = second compound 0.1 µM, first compound 0.0949 µM
[16] = second compound 0.1 µM, first compound 0.3 µM
[17] = second compound 0.316 µM, first compound 0.000949 µM
[18] = second compound 0.316 µM, first compound 0.003 µM
[19] = second compound 0.316 µM, first compound 0.00949 µM
[20] = second compound 0.316 µM, first compound 0.03 µM
[21] = second compound 0.316 µM, first compound 0.0949 µM
[22] = second compound 0.316 µM, first compound 0.3 µM
[23] = second compound 1 µM, first compound 0.000949 µM
[24] = second compound 1 µM, first compound 0.003 µM
[25] = second compound 1 µM, first compound 0.00949 µM
[26] = second compound 1 µM, first compound 0.03 µM
[27] = second compound 1 µM, first compound 0.0949 µM
[28] = second compound 1 µM, first compound 0.3 µM
[29] = second compound 3.16 µM, first compound 0.000949 µM
[30] = second compound 3.16 µM, first compound 0.003 µM
[31] = second compound 3.16 µM, first compound 0.00949 µM
[32] = second compound 3.16 µM, first compound 0.03 µM
[33] = second compound 3.16 µM, first compound 0.0949 µM
[34] = second compound 3.16 µM, first compound 0.3 µM
[35] = second compound 10 µM, first compound 0.000949 µM
[36] = second compound 10 µM, first compound 0.003 µM
[37] = second compound 10 µM, first compound 0.00949 µM
[38] = second compound 10 µM, first compound 0.03 µM
[39] = second compound 10 µM, first compound 0.0949 µM
[40] = second compound 10 µM, first compound 0.3 µM

CC[C@@]1(O)C(=O)OCc2c1cc1n(c2=O)Cc2cc3c(CN(C)C)c(O)ccc3nc2-1 + NC1CCC(NC2CC2c2ccccc2)CC1
IC50 (second compound 0.1 µM): 0.337 nM | IC50 (second compound 0.316 µM): 0.355 nM | IC50 (second compound 1 µM): 0.329 nM | IC50 (second compound 3.16 µM): < 0.316 nM | IC50 (second compound 10 µM): < 0.316 nM | viability, T/C (second compound 0.1 µM, first compound 0.000316 µM): 52.3% | viability, T/C (second compound 0.1 µM, first compound 0.001 µM): 11.6% | viability, T/C (second compound 0.1 µM, first compound 0.00316 µM): 2.63% | viability, T/C (second compound 0.1 µM, first compound 0.01 µM): 7.01% | viability, T/C [1]: 1.98% | viability, T/C [2]: 1.11% | viability, T/C (second compound 0.316 µM, first compound 0.000316 µM): 54.4% | viability, T/C (second compound 0.316 µM, first compound 0.001 µM): 11.1% | viability, T/C (second compound 0.316 µM, first compound 0.00316 µM): 1.88% | viability, T/C (second compound 0.316 µM, first compound 0.01 µM): 2.29% | viability, T/C [3]: 2.33% | viability, T/C [4]: 1.04% | viability, T/C (second compound 1 µM, first compound 0.000316 µM): 51.4% | viability, T/C (second compound 1 µM, first compound 0.001 µM): 10.3% | viability, T/C (second compound 1 µM, first compound 0.00316 µM): 3.14% | viability, T/C (second compound 1 µM, first compound 0.01 µM): 2.71% | viability, T/C [5]: 7% | viability, T/C [6]: 1.06% | viability, T/C (second compound 3.16 µM, first compound 0.000316 µM): 49% | viability, T/C (second compound 3.16 µM, first compound 0.001 µM): 9.4% | viability, T/C (second compound 3.16 µM, first compound 0.00316 µM): 2.42% | viability, T/C (second compound 3.16 µM, first compound 0.01 µM): 1.93% | viability, T/C [7]: 1.88% | viability, T/C [8]: 1.01% | viability, T/C (second compound 10 µM, first compound 0.000316 µM): 28.7% | viability, T/C (second compound 10 µM, first compound 0.001 µM): 6.59% | viability, T/C (second compound 10 µM, first compound 0.00316 µM): 1.13% | viability, T/C (second compound 10 µM, first compound 0.01 µM): 1.34% | viability, T/C [9]: 0.81% | viability, T/C [10]: 0.51%

CCc1c2c(nc3ccc(O)cc13)-c1cc3c(c(=O)n1C2)COC(=O)[C@]3(O)CC + NC1CCC(NC2CC2c2ccccc2)CC1
IC50 (second compound 0.1 µM): < 0.949 nM | IC50 (second compound 0.316 µM): < 0.949 nM | IC50 (second compound 1 µM): < 0.949 nM | IC50 (second compound 3.16 µM): < 0.949 nM | IC50 (second compound 10 µM): < 0.949 nM | viability, T/C [11]: 1.98% | viability, T/C [12]: 3.23% | viability, T/C [13]: 0.6% | viability, T/C [14]: 0.92% | viability, T/C [15]: 0.04% | viability, T/C [16]: 0.14% | viability, T/C [17]: 1.86% | viability, T/C [18]: 0.71% | viability, T/C [19]: 0.57% | viability, T/C [20]: 0.69% | viability, T/C [21]: 0.03% | viability, T/C [22]: 0.27% | viability, T/C [23]: 2.45% | viability, T/C [24]: 1.08% | viability, T/C [25]: 0.51% | viability, T/C [26]: 0.73% | viability, T/C [27]: 0.06% | viability, T/C [28]: 0.61% | viability, T/C [29]: 0.94% | viability, T/C [30]: 0.56% | viability, T/C [31]: 0.41% | viability, T/C [32]: 0.58% | viability, T/C [33]: 0.5% | viability, T/C [34]: 0.13% | viability, T/C [35]: 0.65% | viability, T/C [36]: 0.19% | viability, T/C [37]: 0.2% | viability, T/C [38]: 0.27% | viability, T/C [39]: 0.13% | viability, T/C [40]: 0.19%

Nc1ccccc1NC(=O)c1ccc(CNC(=O)OCc2cccnc2)cc1 + NC1CCC(NC2CC2c2ccccc2)CC1
IC50 (second compound 0.1 µM): 11.9 nM | IC50 (second compound 0.316 µM): 13.2 nM | IC50 (second compound 1 µM): 9.95 nM | IC50 (second compound 3.16 µM): < 9.49 nM | IC50 (second compound 10 µM): < 9.49 nM | viability, T/C [13]: 54.5% | viability, T/C [14]: 32.1% | viability, T/C [15]: 4.58% | viability, T/C [16]: 1.24% | viability, T/C (second compound 0.1 µM, first compound 0.949 µM): 0.63% | viability, T/C (second compound 0.1 µM, first compound 3 µM): 0.12% | viability, T/C [19]: 55.7% | viability, T/C [20]: 35.9% | viability, T/C [21]: 4.66% | viability, T/C [22]: 1.07% | viability, T/C (second compound 0.316 µM, first compound 0.949 µM): 0.8% | viability, T/C (second compound 0.316 µM, first compound 3 µM): 0.15% | viability, T/C [25]: 51% | viability, T/C [26]: 27.2% | viability, T/C [27]: 3.65% | viability, T/C [28]: 0.99% | viability, T/C (second compound 1 µM, first compound 0.949 µM): 0.68% | viability, T/C (second compound 1 µM, first compound 3 µM): 0.11% | viability, T/C [31]: 38% | viability, T/C [32]: 20.3% | viability, T/C [33]: 3.37% | viability, T/C [34]: 0.53% | viability, T/C (second compound 3.16 µM, first compound 0.949 µM): 0.39% | viability, T/C (second compound 3.16 µM, first compound 3 µM): 0.12% | viability, T/C [37]: 29.4% | viability, T/C [38]: 6.92% | viability, T/C [39]: 1% | viability, T/C [40]: 0.3% | viability, T/C (second compound 10 µM, first compound 0.949 µM): 0.22% | viability, T/C (second compound 10 µM, first compound 3 µM): 5.88%

Nc1ccn(C2OC(CO)C(O)C2(F)F)c(=O)n1 (stereo not given) + NC1CCC(NC2CC2c2ccccc2)CC1
IC50 (second compound 0.1 µM): < 0.949 nM | IC50 (second compound 0.316 µM): < 0.949 nM | IC50 (second compound 1 µM): < 0.949 nM | IC50 (second compound 3.16 µM): < 0.949 nM | IC50 (second compound 10 µM): < 0.949 nM | viability, T/C [11]: 2.51% | viability, T/C [12]: 2.16% | viability, T/C [13]: 2.36% | viability, T/C [14]: 1.86% | viability, T/C [15]: 2.26% | viability, T/C [16]: 2.41% | viability, T/C [17]: 2.59% | viability, T/C [18]: 2.18% | viability, T/C [19]: 2.35% | viability, T/C [20]: 2.12% | viability, T/C [21]: 2.8% | viability, T/C [22]: 2.37% | viability, T/C [23]: 2.5% | viability, T/C [24]: 1.98% | viability, T/C [25]: 2.28% | viability, T/C [26]: 2.01% | viability, T/C [27]: 2.14% | viability, T/C [28]: 2.46% | viability, T/C [29]: 2.06% | viability, T/C [30]: 3.05% | viability, T/C [31]: 2.05% | viability, T/C [32]: 1.95% | viability, T/C [33]: 2.15% | viability, T/C [34]: 2.13% | viability, T/C [35]: 1.03% | viability, T/C [36]: 0.96% | viability, T/C [37]: 1.05% | viability, T/C [38]: 0.79% | viability, T/C [39]: 0.64% | viability, T/C [40]: 1.61%

O=C(c1cc(Cc2n[nH]c(=O)c3ccccc23)ccc1F)N1CCN(C(=O)C2CC2)CC1 + NC1CCC(NC2CC2c2ccccc2)CC1
IC50 (second compound 0.1 µM): < 31.6 nM | IC50 (second compound 0.316 µM): < 31.6 nM | IC50 (second compound 1 µM): < 31.6 nM | IC50 (second compound 3.16 µM): < 31.6 nM | IC50 (second compound 10 µM): < 31.6 nM | viability, T/C [1]: 41.8% | viability, T/C [2]: 26.4% | viability, T/C (second compound 0.1 µM, first compound 0.316 µM): 6.09% | viability, T/C (second compound 0.1 µM, first compound 1 µM): 2.71% | viability, T/C (second compound 0.1 µM, first compound 3.16 µM): 2.42% | viability, T/C (second compound 0.1 µM, first compound 10 µM): 2.07% | viability, T/C [3]: 44.4% | viability, T/C [4]: 27.7% | viability, T/C (second compound 0.316 µM, first compound 0.316 µM): 6.03% | viability, T/C (second compound 0.316 µM, first compound 1 µM): 2.23% | viability, T/C (second compound 0.316 µM, first compound 3.16 µM): 2.6% | viability, T/C (second compound 0.316 µM, first compound 10 µM): 2.2% | viability, T/C [5]: 41.1% | viability, T/C [6]: 27.1% | viability, T/C (second compound 1 µM, first compound 0.316 µM): 5.68% | viability, T/C (second compound 1 µM, first compound 1 µM): 2.69% | viability, T/C (second compound 1 µM, first compound 3.16 µM): 3.18% | viability, T/C (second compound 1 µM, first compound 10 µM): 2.72% | viability, T/C [7]: 35.5% | viability, T/C [8]: 21.8% | viability, T/C (second compound 3.16 µM, first compound 0.316 µM): 4.95% | viability, T/C (second compound 3.16 µM, first compound 1 µM): 1.97% | viability, T/C (second compound 3.16 µM, first compound 3.16 µM): 2.43% | viability, T/C (second compound 3.16 µM, first compound 10 µM): 2.46% | viability, T/C [9]: 18.2% | viability, T/C [10]: 11.2% | viability, T/C (second compound 10 µM, first compound 0.316 µM): 1.78% | viability, T/C (second compound 10 µM, first compound 1 µM): 1.3% | viability, T/C (second compound 10 µM, first compound 3.16 µM): 1.25% | viability, T/C (second compound 10 µM, first compound 10 µM): 1.37%
